Measurements reported in patent US20200113852A1, “METHODS OF PATIENT SELECTION AND TREATING TRXR- OR PRDX-OVEREXPRESSED CANCERS” (TRIACT THERAPEUTICS, INC., priority 2017, published 2020).
Like-named read-outs stand apart in the source and are kept apart here.

Key:
[1] = tested on: newly diagnosed glioblastoma multiforme (GBM); experiment: Phase II clinical trial GBM, overall survival; format: in vivo, human
From the text: For assessing the efficacy of the treatment in terms of overall survival, the overall failure rate were estimated and compared to the failure rate of 0.6 per-person year of follow-up regarding the Phase III trial done by Stupp et al. in the same patient population treated with RT plus concomitant and adjuvant temozolomide.
The primary endpoint was death due to all causes. The survival time is defined from time of histological diagnosis to death occurrence. The overall failure rate was expressed as hazard of failure per person-year of follow-up. The total patient population for this part of the study was defined as all patients who have met the eligibility criteria, not met ineligibility criteria, and signed patient informed consent.
It yield above 90% power to detect a 30% reduction in hazard rate with observed hazard ratio of 0.7 (0.42 vs. 0.6) at an alpha level of 0.1 to be significant. The overall failure rate was estimated by dividing the number of events (deaths) by the total exposure time in the study cohort along with 95% confidence intervals. Survival probability and median time of survival was calculated using Kaplan-Meier method.

[2] = Phase I clinical trial GBM, pharmacokinetics; format: in vivo, human; details: human, geometric mean±SD, plasma, read-out: Cmax
From the text: No cytochrome P450-inducing anticonvulsants. However, Gliadel was permitted.
Dosing is IV 2×/week continuous.

[3] = target: T1, TrxR2 (Homo sapiens, UniProt Q9NNW7); experiment: Mass spectrometry of immunoprecipitated TrxR2 modified by Iniparib in HCT116 cells; format: cell-based
T1 construct: TrxR1 and TrxR2 were immunoprecipitated from octylglucoside cell extracts (12 mg proteins); endogenous in cells; host or cells: HCT116 (BSO-pretreated)
Protocol: After separation by SDS-PAGE under reducing conditions and PageBlue® protein staining (Thermo scientific), bands of interest were excised, reduced with DTT, alkylated with iodoacetamide and in-gel digested with trypsin (Promega), according to the method of Shevchenko et al. (24). Peptides were extracted with 50 mM ammonium bicarbonate and 50% acetonitrile in 0.2% formic acid and analyzed by Nano LC-MS/MS after partial evaporation in a speed-vac concentrator. LC-MS/MS experiments were performed on an NanoAcquity UPLC (Waters) coupled to a hybrid LTQ Orbitrap Velos mass spectrometer (Thermo Fisher Scientific) equipped with a nanoelectrospray source. Tryptic digests were loaded onto a nanoAcquity UPLC Trap column (Symmetry C18, 5 μm, 180 μm×20 mm, Waters) and washed with 0.2% FA at 20 μl/min for 5 min. Peptides were then eluted on a C18 reverse-phase nanoAcquity column (BEH130 C18, 1.7 μm, 75 μm×250 mm, Waters) with a linear gradient of 7-30% solvent B (H2O/CH3CN/HCOOH, 10:90:0.2, by vol.) for 85 min, 30-90% solvent B for 10 min, and 90% solvent B for 5 min, at a flow rate of 250 nL/min. The mass spectrometer was operated in the data-dependent mode to automatically switch between MS and MS/MS acquisition. Survey full scan MS spectra (m/z 300-1,600) were acquired in the Orbitrap with a resolution of 60,000 at m/z 400. The AGC was set to 1×10^6 with a maximum injection time of 100 ms. The most intense ions (up to 20) were then isolated for fragmentation in the LTQ linear ion trap with normalized collision energy of 28% at the default activation q of 0.25 with an AGC of 5×10^3 and a maximum injection time of 200 ms. The dynamic exclusion time window was set to 80 s. […] The exact parent mass is the 12C isotope ion mass of the most intense isotopic pattern detected on the high resolution Orbitrap MS parallel scan and included in the MS/MS selection window. […]

[4] = tested on: MDA-MB-453 cells; experiment: Iniparib metabolites release, XLC-MS/MS of incubation media; format: in vitro ADME, human; set-up: unit not given beside the values
Protocol: (§1) Online solid phase extraction (SPE) was performed using the fully automated Spark Holland Symbiosis™ (Emmen, The Netherlands) in eXtraction Liquid Chromatography (XLC) mode. The Symbiosis™ has previously been described in detail (18). HySphere™ C18 HD 7 μm SPE cartridges were used (Spark Holland). Each cartridge was initially conditioned with 2 ml methanol+0.5% formic acid (FA) and then equilibrated with 2 ml water+0.5% FA, both at flow-rates of 4 ml/min. Sample (25 μl) was aspirated and loaded onto the cartridge with 1 ml water+0.5% FA at a flow-rate of 1 ml/min. […] After elution, the right clamp was washed successively with 2 ml water+0.5% FA, 2 ml methanol+0.5% FA and 2 ml water+0.5% FA at 4 ml/min. […] The mobile phase composition was returned to starting conditions over 1 min and maintained during 6 min for column equilibration. The total run time was 27 min. Mass spectrometry was performed using the Thermo® TSQ Quantum Discovery Max in electrospray positive ionization mode (Thermo, US) with the following parameters: capillary voltage=4.0 kV, capillary temperature=300° C., sheath gas pressure=40, auxiliary gas pressure=5.
(§2) All values are expressed as means±SEM of three independent experiments. ND., non detectable.

[5] = tested on: HCT116 cells; experiment: as above; format: in vitro ADME, human; set-up: unit not given beside the values
Protocol: as §1, §2

[6] = tested on: JNK, p38MAPK in MDA-MB-453 cells; experiment: Cell death signaling western blots (phospho-JNK, phospho-p38MAPK); details: MDA-MB-453, 100 μM
Protocol: Cells extracts were analyzed by SDS-PAGE either under reducing conditions or under non-reducing conditions in the case of Trx blot followed by blots anti-phospho-JNK, anti-phospho-p38MAPK, anti-cleaved-PARP and anti-Trx. Results are representative of three independent experiments.
After 2 h at 4° C., lysates were clarified by centrifugation and protein amounts were measured using the BCA assay (Pierce, Thermo scientific).
Equal amounts of proteins were resolved by SDS-PAGE under either non-reducing or reducing (5% 2-mercaptoethanol, 20 min at 60° C.) conditions, using 4-20% gels (Novex, Invitrogen), then subjected to semi-dry electrophoretic transfer onto nitrocellulose membranes.

T1 sequence (Q9NNW7 37-524): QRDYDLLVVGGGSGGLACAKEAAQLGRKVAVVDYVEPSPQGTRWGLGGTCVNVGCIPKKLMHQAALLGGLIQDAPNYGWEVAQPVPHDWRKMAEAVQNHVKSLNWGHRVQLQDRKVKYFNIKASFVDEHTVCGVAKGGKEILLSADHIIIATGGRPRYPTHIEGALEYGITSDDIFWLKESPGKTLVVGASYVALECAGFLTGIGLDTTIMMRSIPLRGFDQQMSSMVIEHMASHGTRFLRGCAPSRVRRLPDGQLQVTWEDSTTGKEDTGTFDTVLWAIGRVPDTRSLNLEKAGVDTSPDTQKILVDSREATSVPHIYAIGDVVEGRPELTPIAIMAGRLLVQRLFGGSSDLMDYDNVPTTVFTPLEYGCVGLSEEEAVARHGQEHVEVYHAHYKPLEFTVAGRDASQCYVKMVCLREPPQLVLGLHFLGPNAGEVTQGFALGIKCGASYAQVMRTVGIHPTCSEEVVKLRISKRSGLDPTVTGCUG

Compound: NC(=O)c1ccc(I)c([N+](=O)[O-])c1 [Iniparib, 4-iodo-3-nitrobenzamide]
- 2 Year Survival ([1]; Phase 2, N = 76): 42.1 % patients
- 3 Year Survival ([1]; Phase 2, N = 76): 23.7 % patients
- reduced HR versus Stupp et al 2005 ([1]; single arm phase 2): ≥ 25%
- Cmax ([2]; 5.1 mg/kg IV 2×/week): 642 ± 315 ng/mL
- Cmax ([2]; 6.1 mg/kg IV 2×/week): 928 ± 397 ng/mL
- Cmax ([2]; 6.8 mg/kg IV 2×/week): 1020 ng/mL
- Cmax ([2]; 8.0 mg/kg IV 2×/week): 3690 ng/mL
- Cmax ([2]; 8.6 mg/kg IV 2×/week): 1520 ng/mL
- Cmax ([2]; 9.5 mg/kg IV 2×/week): 2140 ng/mL
- TrxR2 with one Iniparib adduct on Sec residue ([3]; 1 h): 5%
- TrxR2 with one Iniparib adduct on Sec residue ([3]; 4 h): 12%
- additional TrxR2 peptide modified on a cysteine residue ([3]; 4 h): < 1%
- Iniparib and metabolites in incubation media ([4]; MDA-MB-453 w BSO, 1 h after 100 μM Iniparib): 91.4 ± 5.1
- Iniparib and metabolites in incubation media ([4]; MDA-MB-453 w BSO, 5 h after 100 μM Iniparib): 88.9 ± 10.2
- Iniparib and metabolites in incubation media ([4]; MDA-MB-453 w BSO, 24 h after 100 μM Iniparib): 74.2 ± 10.8
- Iniparib and metabolites in incubation media ([4]; MDA-MB-453 w/o BSO, 1 h after 100 μM Iniparib): 87.1 ± 1.3
- Iniparib and metabolites in incubation media ([4]; MDA-MB-453 w/o BSO, 5 h after 100 μM Iniparib): 64.0 ± 8.8
- Iniparib and metabolites in incubation media ([4]; MDA-MB-453 w/o BSO, 24 h after 100 μM Iniparib): 12.2 ± 4.3
- Iniparib and metabolites in incubation media ([5]; HCT116 w BSO, 1 h after 100 μM Iniparib): 87.6 ± 3.5
- Iniparib and metabolites in incubation media ([5]; HCT116 w BSO, 5 h after 100 μM Iniparib): 84.5 ± 6.7
- Iniparib and metabolites in incubation media ([5]; HCT116 w BSO, 24 h after 100 μM Iniparib): 72.9 ± 7.4
- Iniparib and metabolites in incubation media ([5]; HCT116 w/o BSO, 1 h after 100 μM Iniparib): 59.2 ± 0.6
- Iniparib and metabolites in incubation media ([5]; HCT116 w/o BSO, 5 h after 100 μM Iniparib): 8.9 ± 0.4
- JNK activation, time of peak [6]: 10 h
